Data set [1] has as its system Plasmodium falciparum. Briefly: Antimalarial activity against synchronized Plasmodium falciparum Dd2 (MRA-150) infected in human O-postive erythrocytes assessed as reduction in parasite growth after 72 hrs by SYBR green I staining based fluorescence assay. In kind it is functional, organism-based.
Data set [2] deals with Plasmodium berghei. Briefly: Antimalarial activity against Plasmodium berghei ANKA expressing luciferase, PbGFP-Luccon infected in mouse assessed as reduction in parasitemia at 40 mg/kg, po measured after 4 days by luminescence assay. In kind it is functional, organism-based. The conditions noted are these: time 4.0 day.
Data set [3] is described as follows: Stability in CD-1 mouse plasma at 1 hour by LC-MS analysis a. The class given is ADME, cell-free. The note with it: read-out: Stability.
Data set [4] can be described thus: Toxicity in mouse infected with Plasmodium berghei ANKA assessed as ruffled fur at 40 mg/kg, po measured after 4 days. The class given is organism-based. The note with it: in vivo, 96 h, time 4 day.
In data set [5] the test system is Plasmodium falciparum. Briefly: Antimalarial activity against Plasmodium falciparum 3D7 (MRA-102) infected in human O-postive erythrocytes measured after 72 hrs by SYBR green I staining based fluorescence assay. In kind it is functional, organism-based. The note with it: 3D7 MRA-102, 72 h.
The nature of data set [6]: Oral bioavailability in rat at 40 mg/kg. The note with it: in vivo. The class given is ADME, organism-based.
The nature of data set [7]: Half life in rat plasma 40 mg/kg, po. In kind it is ADME, organism-based.
For data set [8], the system named is Plasmodium falciparum. Briefly: Antimalarial activity against Plasmodium falciparum 4G infected in human O-postive erythrocytes measured after 72 hrs by SYBR green I staining based fluorescence assay. In kind it is functional, organism-based.
In data set [9] the test system is Plasmodium falciparum. Briefly: Antimalarial activity against KAE609 resistant Plasmodium falciparum Dd2 infected in human O-postive erythrocytes measured after 72 hrs by SYBR green I staining based fluorescence assay. In kind it is functional, organism-based. The conditions noted are these: Dd2, 72 h.
Data set [10] in a line: Cmax in rat at 40 mg/kg, po. The arrangement: route oral, dose 40 mg/kg. The conditions noted are these: in vivo. In kind it is ADME, organism-based.
Data set [11] is described as follows: Volume of distribution in rat at 10 mg/kg , iv. The conditions noted are these: in vivo. In kind it is ADME, organism-based.
In data set [12] the test system is Plasmodium falciparum. Briefly: Antimalarial activity against Plasmodium falciparum 3D7A incubated for 48 hrs by [3H]-hypoxanthine incorporation assay. In kind it is functional, organism-based. The conditions noted are these: 3D7.
Data set [13] concerns the target Voltage-gated inwardly rectifying potassium channel KCNH2 (Homo sapiens, UniProt Q12809). Briefly: Inhibition of human ERG expressed in HEK-293 cells by patch clamp method. In kind it is cell-based, HEK293. In general terms: Patch clamp records ionic current or voltage across a cell membrane.
Data set [14] can be described thus: Toxicity in mouse infected with Plasmodium berghei ANKA assessed as behavioural changes at 40 mg/kg, po measured after 4 days. The class given is organism-based. The note with it: in vivo, 96 h, time 4 day.
The nature of data set [15]: Toxicity in mouse infected with Plasmodium berghei ANKA assessed as weight loss at 40 mg/kg, po measured after 4 days. The class given is organism-based. The note with it: in vivo, 96 h, time 4 day.
The nature of data set [16]: Lipophilicity, logD of the compound between 1-octanol and PBS pH 7.4 at 10 mM by LC-MS analysis. In kind it is physicochemical. The conditions noted are these: 1-octanol/PBS.
Data set [17] can be described thus: Toxicity in mouse infected with Plasmodium berghei ANKA assessed as lethargy at 40 mg/kg, po measured after 4 days. The class given is organism-based. The conditions noted are these: in vivo, 96 h, time 4 day.
The nature of data set [18]: Thermodynamic solubility of PBS at pH 7.4 by LC-MS analysis. In kind it is physicochemical. The note with it: read-out: Therm_solubility.
In data set [19] the test system is Plasmodium falciparum. Briefly: Antimalarial activity against synchronized Plasmodium falciparum Dd2 (MRA-150) infected in human O-postive erythrocytes in presence of IPP assessed as reduction in parasite growth at 2.5 uM measured after 72 hrs by SYBR green I staining based fluorescence assay relative to control. In kind it is functional. The arrangement: scale not given: the % may be the effect or the level left.

For data set [20], the system named is Escherichia coli. Briefly: Antibacterial activity against Escherichia coli (BL21) assessed as bacterial growth after 18 hrs by g a cell density meter. The class given is functional.
For data set [21], the system named is Plasmodium berghei. Briefly: Antimalarial activity against Plasmodium berghei ANKA expressing luciferase, PbGFP-Luccon infected in mouse assessed as reduction in parasitemia at 20 mg/kg, po measured after 4 days by luminescence assay. The class given is functional, organism-based. The conditions noted are these: time 4.0 day.
Data set [22] can be described thus: Toxicity in mouse infected with Plasmodium berghei ANKA assessed as gait at 40 mg/kg, po measured after 4 days. The class given is organism-based. The conditions noted are these: in vivo, 96 h, time 4 day.
The nature of data set [23]: Half life in CD-1 mouse liver microsomes after 60 mins by LC-MS analysis. The class given is ADME, Microsome.
In data set [24] the test system is Hepatocyte. Briefly: Cytotoxicity against human hepatocytes measured after 96 hrs by DAPI staining based fluroscence assay. The class given is functional.
In data set [25] the test system is Plasmodium falciparum. Briefly: Antimalarial activity against Plasmodium falciparum W2 infected in human O-postive erythrocytes measured after 72 hrs by SYBR green I staining based fluorescence assay. In kind it is functional, organism-based. The conditions noted are these: W2, 72 h.
The subject of data set [26] is HEK293. Briefly: Cytotoxicity against human HEK293 cells by resazurin based cell viability assay. In kind it is functional. On the technique in general: Alamar Blue is a resazurin reagent that responds to reducing activity.
The test system of data set [27] is Plasmodium falciparum. Briefly: Antimalarial activity against Plasmodium falciparum 3D7 (MRA-102) incubated for 72 hrs by Lactate dehydrogenase activity. The class given is functional, organism-based. The conditions noted are these: 3D7 MRA-102, 72 h.
The test system of data set [28] is Plasmodium falciparum. Briefly: Antimalarial activity against synchronized Plasmodium falciparum Dd2 (MRA-150) infected in human O-postive erythrocytes in presence of IPP assessed as reduction in parasite growth at 5 uM measured after 72 hrs by SYBR green I staining based fluorescence assay relative to control. The class given is functional. The arrangement: scale not given: the % may be the effect or the level left.

Active and inactive are the calls of the source. No cut-off for these calls is given here.

Voltage-gated inwardly rectifying potassium channel KCNH2, sequence (Q12809 whole entry): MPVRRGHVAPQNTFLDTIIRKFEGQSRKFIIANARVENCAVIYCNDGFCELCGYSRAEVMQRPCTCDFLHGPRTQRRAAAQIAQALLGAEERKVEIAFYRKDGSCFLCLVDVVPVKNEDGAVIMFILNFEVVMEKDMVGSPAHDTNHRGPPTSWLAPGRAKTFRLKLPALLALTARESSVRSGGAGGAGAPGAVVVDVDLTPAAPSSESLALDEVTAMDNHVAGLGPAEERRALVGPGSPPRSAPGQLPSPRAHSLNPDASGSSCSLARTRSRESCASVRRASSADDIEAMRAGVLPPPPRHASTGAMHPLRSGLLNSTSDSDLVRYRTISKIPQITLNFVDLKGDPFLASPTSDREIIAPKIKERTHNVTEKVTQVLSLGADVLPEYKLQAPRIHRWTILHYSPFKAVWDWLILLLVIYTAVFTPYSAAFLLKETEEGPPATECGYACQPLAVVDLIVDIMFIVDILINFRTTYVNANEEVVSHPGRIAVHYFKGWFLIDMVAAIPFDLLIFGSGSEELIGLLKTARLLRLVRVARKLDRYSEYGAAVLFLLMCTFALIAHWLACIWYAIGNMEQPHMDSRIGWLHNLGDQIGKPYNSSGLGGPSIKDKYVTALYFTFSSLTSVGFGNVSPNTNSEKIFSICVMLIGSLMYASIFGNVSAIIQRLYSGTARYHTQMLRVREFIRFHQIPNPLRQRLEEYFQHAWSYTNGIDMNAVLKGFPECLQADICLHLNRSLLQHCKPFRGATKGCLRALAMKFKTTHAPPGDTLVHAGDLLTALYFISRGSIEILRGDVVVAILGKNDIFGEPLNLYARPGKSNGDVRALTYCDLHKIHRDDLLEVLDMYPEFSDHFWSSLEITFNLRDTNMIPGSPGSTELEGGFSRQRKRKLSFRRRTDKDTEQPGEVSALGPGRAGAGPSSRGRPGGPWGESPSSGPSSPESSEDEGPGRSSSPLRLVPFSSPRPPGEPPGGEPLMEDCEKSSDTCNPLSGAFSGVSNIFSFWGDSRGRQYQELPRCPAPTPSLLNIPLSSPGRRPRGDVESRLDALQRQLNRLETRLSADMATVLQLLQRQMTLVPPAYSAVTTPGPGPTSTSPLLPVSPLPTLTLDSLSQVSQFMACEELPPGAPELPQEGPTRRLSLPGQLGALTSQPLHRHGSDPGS

`CNCCCNC(=O)c1cc2c([nH]c3c(C)cccc32)c(-c2ccc(Cl)c(Cl)c2)n1`: the EC50 (in general, the midpoint of the concentration-response curve) in data set [1] is 217 nM.

Consider `CNCCNC(=O)[C@H]1Cc2c([nH]c3c(C)cccc23)[C@H](c2ccc(Cl)cc2Cl)N1`, for which, in data set [1], the EC50 was determined as 3690 nM.

For the compound `CNCCNC(=O)c1cc2c([nH]c3c(C)cccc32)c(-c2ccc(Cl)cc2Cl)n1`, the EC50 in data set [1] is 583 nM.

On to `CNCCNC(=O)c1cc2c([nH]c3c(C)cccc32)c(-c2ccc(Cl)cc2)n1`, for which the EC50 in data set [1] came to 274 nM.

Take `CNCCNC(=O)c1cc2c([nH]c3c(C)cccc32)c(-c2cccc(Cl)c2)n1`: the EC50 in [1] came to 342 nM.

Turning to `CNCCNC(=O)c1cc2c([nH]c3c(C)cccc32)c(-c2ccc(Cl)c(Cl)c2)n1.Cl`, the result in data set [2] was Active. For the same compound, the remaining at 1 h in data set [3] came out at 100%. In addition, the Activity entry in data set [4] is recorded as “Non-Toxic”; in data set [14], “Non-Toxic”; in data set [15], “Non-Toxic”; in data set [17], “Non-Toxic”; in data set [19] it was 0%; in data set [22], “Non-Toxic”. The EC50 in [5] was determined as 53 nM; in data set [8], 110 nM; in data set [9], 101 nM; in [1] it was 108 nM; in [25], 100 nM. Also, the bioavailability – broadly, the share of a dose that reaches the circulation, judged against a reference dose that is usually intravenous – in data set [6] was 40%. Further, the figures for the half-life in [7] and in data set [23] were 8 h and 1.83 h, respectively. Besides, the Cmax – broadly, the peak of the concentration-time curve – in data set [10] was 800 nM. Further, the Vd (usually a proportionality between amount in the body and measured concentration, not a real space) in [11] turned out to be 21.8 L/kg. For the same compound, the IC50 (in general, the concentration needed to halve the response being measured) in [12] was determined as 70 nM; in data set [13], 510 nM; in data set [27] it was 117 nM. Moreover, in [16], the logD (in general, lipophilicity at a set pH, counting ionised and neutral species) at 10000 µM is 3.3. The solubility thermodynamic in data set [18] came to 9.5 µM. In addition, the MIC (usually the lowest concentration that inhibits growth of the organism) in data set [20] was > 250 µM. Moreover, the outcome in data set [21] was inactive. Also, the CC50 (in general, the concentration that lowers cell viability or growth by half) in [24] worked out at 8500 nM; in data set [26] it was 32000 nM.

Regarding `CNCCNC(=O)c1cc2c([nH]c3ccccc32)c(-c2ccc(Cl)c(Cl)c2)n1`, the concentration giving a half-maximal response (EC50) in data set [1] came out at 277 nM.

Turning to `Cc1cccc2c1[nH]c1c(-c3ccc(Cl)c(Cl)c3)nc(C(=O)NCCN(C)C)cc12`, the EC50 in data set [1] is 264 nM.

For the compound `CNCCNC(=O)[C@@H]1Cc2c([nH]c3c(C)cccc23)[C@H](c2ccc(Cl)cc2Cl)N1`, in data set [1], the EC50 was determined as 1300 nM.

`CCN(CC)CCCC(C)Nc1ccnc2cc(Cl)ccc12` (configuration not stated): in [2], the result was Active.

Turning to `O=C(O)[C@@H]1Cc2c([nH]c3ccccc23)[C@@H](c2ccc(Cl)cc2Cl)N1`, the Activity in data set [19] amounted to 100%.

Take `CNC(=O)c1cc2c([nH]c3c(C)cccc32)c(-c2ccc(Cl)c(Cl)c2)n1`: the EC50 in data set [1] was > 10000 nM.

`CCCCNC(=O)c1cc2c([nH]c3c(C)cccc32)c(-c2ccc(Cl)c(Cl)c2)n1`: the EC50 in data set [1] was 1020 nM.

Consider `CNCCNC(=O)c1cc2c([nH]c3ccccc32)c(-c2ccccc2)n1`, for which the EC50 in data set [1] is 2500 nM.

With `Cc1cccc2c1[nH]c1c(-c3ccc(Cl)c(Cl)c3)nc(C(=O)NCCO)cc12`, the EC50 in [1] came out at 3270 nM.

For the compound `CNCCNC(=O)c1cc2c([nH]c3ccccc32)c(-c2ccc(Cl)cc2)n1`, the EC50 in data set [1] came out at 496 nM.

For `CNCCNC(=O)c1cc2c([nH]c3c(C)cccc32)c(-c2ccccc2)n1`, in [1], the EC50 was 4000 nM.

With `COC(=O)c1cc2c([nH]c3c(C)cccc32)c(-c2ccc(Cl)c(Cl)c2)n1`, the EC50 in [1] is > 10000 nM.

Consider `CNCCNC(=O)[C@@H]1Cc2c([nH]c3c(C)cccc23)[C@@H](c2ccc(Cl)cc2Cl)N1`, for which, in data set [1], the EC50 was determined as 1950 nM. Moreover, the Activity in [28] was determined as 50%.

As to `Cc1cccc2c1[nH]c1c(-c3ccc(Cl)c(Cl)c3)nc(C(=O)O)cc12`, the EC50 in [1] was > 10000 nM.

In the case of `Cc1cccc2c1[nH]c1c(-c3ccc(Cl)c(Cl)c3)nc(C(=O)NCCN)cc12`, the EC50 in data set [1] came to 263 nM.

On to `CNCCNC(=O)c1cc2c([nH]c3ccccc32)c(-c2cccc(Cl)c2)n1`, for which the EC50 in data set [1] is 641 nM.

For the compound `CNCCNC(=O)[C@H]1Cc2c([nH]c3c(C)cccc23)[C@@H](c2ccc(Cl)cc2Cl)N1`, in data set [1], the EC50 stood at 1430 nM.

For the compound `Cc1cccc2c1[nH]c1c(-c3ccc(Cl)c(Cl)c3)nc(C(=O)NCCCN)cc12`, in data set [1], the EC50 came out at 726 nM.

As to `Cc1cccc2c1[nH]c1c(-c3ccc(Cl)c(Cl)c3)nc(C(=O)NCCCN(C)C)cc12`, in data set [1], the EC50 turned out to be 240 nM.
